Test results reported in patent publication US7531507B2, “Acylated nonadepsipeptides containing pyridyl alanine residues” (AiCuris GmbH & Co. KG, priority 2004, dated 2009).
Non-standard residues stand in square brackets, D forms with d. Residues, ends and D or L forms follow the SMILES beside them. *: point of attachment. X2 = CC(C)(C)C[C@@H](N)C(=O)N[C@@H](Cc1cccnc1)C(=O)N[C@H](C(N)=O)[C@H](O*)c1ccccc1; Asn(3S-OH) = NC(=O)[C@@H](O)[C@H](N)C(=O)O; X1 = CC(C)[C@@H](O)[C@H](C)C(=O)*; aThr = C[C@H](O)[C@H](N)C(=O)O

Columns and labels:
[1] = Determination of the free fraction (fu) in plasma via Transil or ultrafiltration; type: in vitro ADME, rat; settings: rat, plasma
Procedure: Principle of the Determination of the Free Fraction via Transil:
The method described herein for determining the free fraction (fu) of a test substance is divided into 2 parts:
a) Determination of the Transil®/buffer partitioning ratio (MAbuffer) by incubating the test substance in a Transil® buffer (pH 7.4) dispersion and subsequently determining the concentration in the dispersion and in the buffer supernatant.
b) Determination of the Transil®/plasma partitioning ratio (MAplasma) by incubating the test substance in a Transil® plasma dispersion and subsequently determining the concentration in the dispersion and in the plasma.
The quotient of the two partitioning ratios gives fu.
Where substances are highly protein-bound, the plasma is usually diluted with isotonic phosphate buffer (pH 7.4) and then suspended with Transil®. Determination of fu′ (free fraction in diluted plasma) in this diluted protein solution takes place in analogy to the determination of fu. The free fraction in undiluted plasma is calculated from fu′ and the dilution factor.
Concerning this method, compare also: Schuhmacher, Joachim; Kohlsdorfer, Christian; Buehner, Klaus; Brandenburger, Tim; Kruk, Renate, “High-throughput determination of the free fraction of drugs strongly bound to plasma proteins.” Journal of Pharmaceutical Sciences 2004, 93, 816-830.
Determination of the Membrane Affinity of a Test Substance After Partitioning Between Transil® and Buffer (MAbuffer):
All incubations are carried out in suitable glass vessels, e.g. glass vials, ground-joint test tubes. The total volume is usually 0.5-5 ml, and the Transil® volume is 10-100 μl. If the membrane affinities are expected to be high, the Transil® dispersion can be diluted up to 20 times with phosphate buffer of pH 7.4, e.g. Dulbecco's PBS. Phosphate buffer of pH 7.4 is introduced into the incubation vessels, and the Transil® is pipetted in after thorough mixing. The test substance is pipetted in at a concentration of, for example, 200 ng/ml, n=6. The proportion of organic solvents should be ≦2%. The mixtures are incubated at room temperature i.e. on a mini-shaker at an angle of about 45°, at about 400 rpm for 30 min. The 100% value is determined by taking at least one aliquot of, for example, 100 μl, and the remaining mixture is centrifuged at about 1800 g for about 10 min. […]
The plasma of the species to be investigated is filtered through a semipermeable membrane. The concentration of substance in the filtrate is measured, and the free fraction fU is calculated therefrom. […] The concentration of substance in the ultrafiltrate (Cu, unbound substance concentration) and in the plasma before centrifugation (C; total substance concentration) is measured. The free fraction is calculated by the formula fu (%)=Cu/C*100.

[2] = tested on: E. faecium L4001; type: cell-based, Enterococcus faecium; settings: L4001
[3] = tested on: E. faecalis ICB 27159; type: cell-based, Enterococcus faecalis; settings: ICB 27159
Procedure: (§1) Determination of the Minimum Inhibitory Concentration (MIC):
(§2) The MIC is determined in the liquid dilution test in accordance with the NCCLS guidelines. Overnight cultures of Staphylococcus aureus 133, Enterococcus faecalis 27159, E. faecium 4147 and Streptococcus pneumoniae G9a are incubated with the described test substances in a 1:2 dilution series. The MIC determination is carried out with a cell count of 10^5 microbes per ml in Isosensitest medium (Difco, Irvine/USA), with the exception of S. pneumoniae which is tested in BHI broth (Difco, Irvine/USA) with 10% bovine serum with a cell count of 10^6 microbes per ml. The cultures are incubated at 37° C. for 18-24 hours, S. pneumoniae in the presence of 10% CO2.
(§3) The MIC is defined as the lowest concentration of each substance at which visible bacterial growth no longer occurs. The MIC values are reported in μg/ml.

[4] = tested on: Streptococcus pneumoniae G9a; type: cell-based; settings: G9a
Procedure: as §1, §2, §3

[5] = tested on: Staphylococcus aureus 133; type: cell-based; settings: 133
Procedure: as §1, §2, §3

- fraction unbound at 30 min [1]: 0.086
- MIC E. faecium L4001 [2]: 1 µg/mL
- MIC E. faecalis ICB 27159 [3]: 1 µg/mL
- MIC S. pneumoniae G9a [4]: 0.5 µg/mL
- MIC S. aureus 133 [5]: 0.5 µg/mL
Structure (SMILES): CC[C@H](C)[C@H](NC(=O)[C@@H](CCCNC(=N)N)NC(=O)[C@H](CC(C)C)NC(=O)[C@@H](C)[C@H](O)C(C)C)C(=O)N[C@H](C(=O)NCC(=O)N[C@H](C(=O)N[C@@H](CO)C(=O)O[C@H](c1ccccc1)[C@H](NC(=O)[C@H](Cc1cccnc1)NC(=O)[C@H](N)CC(C)(C)C)C(N)=O)[C@H](O)C(N)=O)[C@H](C)O.O=C(O)C(F)(F)F.O=C(O)C(F)(F)F.O=C(O)C(F)(F)F [Example 5, 3-tert-Butyl-D-alanyl-3-(pyridin-3-yl)-L-alanyl-de(1-D-leucyl-2-L-leucyl)lysobactin tristrifluoroacetate, reference compound] (X1-L[dR]I[aThr]G[Asn(3S-OH)]S-X2)
